Measurements published in patent publication US11192849B2, “Compounds, compositions, and methods for modulating ferroptosis and treating excitotoxic disorders” (THE TRUSTEES OF COLUMBIA UNIVERSITY IN THE CITY OF NEW YORK, priority 2013, dated 2021).

Tests used:
[1] = system: HT-1080, BJeLR and Calu-1 cells; test: Modulatory profiling of cell death inhibitors against erastin; format: cell-based, human; details: erastin 10 μM, 24 hours; 10-point, 4-fold dilution series
Method: The day before the experiment, cells were seeded in black, 384-well clear bottom plates (Corning) at a density of 1,000 cells/well using a Beckman Biomek FX Workstation. All compounds (except 3-methyladenine and chloroquine, which were diluted in water) were diluted in DMSO at 250 times the final highest test concentration, and aliquoted across a 384-well plate (Greiner, Monroe, N.C.). A ten-point, 4-fold dilution series of each inhibitor in DMSO was made using a multichannel pipette. Replicates of this mother plate were stored at −20° C. […] Medium was removed from cells and replaced with 36 μL medium containing DMSO (0.1%) or erastin (10 μM final concentration). Using the Biomek FX, 4 μL were then transferred from each inhibitor daughter plate into the DMSO-containing or erastin-containing assay plates. For 3-methyladenine and chloroquine, inhibitors were prepared fresh in media at 10-fold the final concentration in the presence of DMSO or 10 μM erastin. These solutions were manually pipetted onto cells in 384-well format. Assay plates were incubated at 37° C. for 24 hours. Viability was assessed using Alamar Blue.
The modulatory effect (Me) for drug-drug interactions was computed as follows. First, plate-based background correction was performed using Alamar Blue values from empty (cell-free) wells included on each plate. Next, within each experiment, 100% viability is determined as the average Alamar Blue score for cells treated with modulator=DMSO and lethal=DMSO, and all Alamar Blue values were scaled from 0 to 1 with the DMSO×DMSO condition=1. The individual effects of each modulator and lethal (e.g. in the presence of DMSO) at all tested doses were then ascertained. […] Next, BExp was compared to the actual observed viability. […] By default, Me in DMSO-treated cells is equal to 0. […] Me values for each inhibitor-lethal drug combination were hierarchically clustered and plotted as a heatmap using the heatmaps.2 function of the gplots library in R.

[2] = system: freshly isolated renal tubules; test: LDH release from hypoxic freshly isolated renal tubules; format: cell-based, mouse; details: Nec-1 50 μM, with or without glycine
Method: Six to 12 mice were used for each isolated tubule preparation, depending on the amount of material needed for particular experiments. For preparation of isolated tubules, mice were anesthetized with ketamine (100 mg/kg i.p.) and xylazine (10 mg/kg i.p.), and the kidneys were immediately removed. Type I collagenase was from Worthington Biochemical. Percoll was purchased from Amersham Biosciences. All other reagents and chemicals, including delipidated BSA, were of the highest grade available from Sigma-Aldrich. […] The cortices were then dissected and minced on an ice-cold tile and then resuspended in additional solution A for 8-10 min of digestion at 37° C., followed by enrichment of proximal tubules using centrifugation on self-forming Percoll gradients. For Nec-1 studies in renal tubules, renal cortices were dissected in ice-cold dissection solution (DS) [HBSS with 10 mmol/L glucose, 5 mmol/L glycine, 1 mmol/L alanine, 15 mmol/L Hepes (pH 7.4); osmolality, 325 mOsmol/L] and sliced into 1-mm pieces. The fragments were transferred to collagenase solution (DS with 0.1% (wt/vol) type 2 collagenase and 96 μg/mL soybean trypsin inhibitor) and digested for 30 min at 37° C. and 61×g. After digestion, the supernatant was sieved through two nylon sieves: first 250-μm pore size and then 100-μm pore size. […]

[3] = system: mouse kidney proximal tubules; test: Hydroxyquinoline + iron induced cell death in isolated mouse kidney proximal tubules (LDH release); format: cell-based; details: 10 μM hydroxyquinoline and ferrous ammonium sulfate, 60 min
Method: Tubule preparation: 8-12 week old C57/BL6 female mice were euthanized with isoflurane. […] The cortices were then dissected and minced on an ice cold tile, then resuspended in additional Solution A for 8-10 min. of digestion at 37° C. followed by enrichment of proximal tubules using centrifugation on self-forming Percoll gradients as previously described for rabbit tubules.
Experimental procedures for isolated tubules: Tubules were suspended at 1.5-2.0 mg tubule protein/ml in a 95% air/5% CO2-gassed medium containing (in mM) 110 NaCl, 2.6 KCl, 25 NaHCO3, 2.4 KH2PO4, 1.25 CaCl2, 1.2 MgCl2, 1.2 MgSO4, 5 glucose, 4 sodium lactate, 0.3 alanine, 5 sodium butyrate, 2 glycine, and 1.0 mg/ml bovine gelatin (75 bloom) (Solution B). After precincubation for 15 min. at 37° C., then were then resuspended in fresh Solution B containing 2 mM heptanoic acid instead of sodium butyrate along with experimental compounds.
In addition, the efficacy of Fer-1, SRS11-92, and selected analogs was tested in a model of iron-induced cell death in freshly isolated mouse kidney proximal tubules that simulates major elements of rhabdomyolysis-induced acute kidney injury (FIG. 15C). Cell death in this model is known to involve oxidative lipid damage (Sogabe, et al., 1996, Park, et al., 2011); it was therefore believed that Fer-1 might be protective. 10 μM each of hydroxyquinoline and ferrous ammonium sulfate (HQ+Fe) were used to induce cell death, which was quantified by monitoring LDH release after 60 min. […] By implication, cell death in these models may involve, at least in part, the induction of lipid peroxidation and perhaps ferroptosis.

BJeLR cells = test: Erastin-induced death and ROS in BJeLR cells; format: cell-based, human; details: erastin 10 μM, 6-AN 200 μM
Method: The day before the experiment, 200,000 cells/well were seeded in 6-well dishes (Corning Inc., Corning, N.Y.). The day of the experiment, cells were treated with test compounds for the indicated times, then harvested by trypsinization, resuspended in 500 μL Hanks Balanced Salt Solution (HBSS, Gibco, Invitrogen Corp., Carlsbad, Calif.) containing either H2DCFDA (25 μM), C11-BODIPY(581/591) (2 μM) or MitoSOX (5 μM) (all from Molecular Probes, Invitrogen) and incubated for 10 minutes at 37° C. in a tissue culture incubator. Cells were then resuspended in 500 μL of fresh HBSS, strained through a […] cell strainer (BD Falcon, BD Biosciences, San Jose, Calif.), and analyzed using a flow cytometer (FACSCalibur or Accuri C6, BD Biosciences), which was equipped with 488-nm laser for excitation. Data was collected from the FL1 (H2DCFDA, C11-BODIPY) or FL2 channel (MitoSOX). A minimum of 10,000 cells were analyzed per condition.
Cell viability was typically assessed in 384-well format by Alamar Blue (Invitrogen) fluorescence (ex/em 530/590) measured on a Victor3 platereader (Perkin Elmer, Waltham, Mass.). In some experiments, Trypan Blue dye exclusion counting was performed using an automated cell counter (ViCell, Beckman-Coulter Inc., Brea, Calif.). Cell viability in test conditions is reported as a percentage relative to the negative control treatment. […]

Calu-1 cells = test: Erastin-induced ferroptosis in Calu-1 cells, NOX pathway inhibitors; format: cell-based, human
Method: Cell viability was typically assessed in 384-well format by Alamar Blue (Invitrogen) fluorescence (ex/em 530/590) measured on a Victor3 platereader (Perkin Elmer, Waltham, Mass.). In some experiments, Trypan Blue dye exclusion counting was performed using an automated cell counter (ViCell, Beckman-Coulter Inc., Brea, Calif.). Cell viability in test conditions is reported as a percentage relative to the negative control treatment.

SMILES | modulation of erastin-induced death [1] | LDH release from hypoxic renal tubules [2] | HQ+Fe induced lethality (LDH release) [3] | erastin-induced cell death and ROS production (BJeLR cells) | suppression of erastin-induced ferroptosis (Calu-1 cells)
CN1C(=O)C(Cc2c[nH]c3ccccc23)NC1=S (centres unmarked) [necrostatin-1] | not consistently modulated | no protection was detected | did not show any protection | – | –
NC(=O)c1ccc(N)nc1 [Compound 6-AN, 6-aminonicotinamde] | – | – | – | prevented cell death as well as ROS production | strongly suppressed
